Here are results for 7 molecules from US5432164A, “C2,N^6 -disubstituted adenosine derivatives” (Novo Nordisk A/S, priority 1991, dated 1995).

One assay has as its system A1 receptor. Conditions: literature, in words; cited from earlier work.
The next assay concerns mice. The experiment in a line: DMCM induced seizures in mice, i.p. 30 min (protection against clonic convulsions). Particulars: Mus musculus, ip, 0.5 h, read-out: DMCM-ind. seizures (ED50, mg/kg). The assay is classed as in vivo, male NMRI mice. The protocol:
DMCM INDUCED SEIZURES IN MICE, I.P.30 min.
DMCM, 15 mg/kg, i.p., clonic convulsions
DMCM is an inverse agonist at the benzodiazepine receptor, presumably producing seizures by decreasing the potency of inhibition of the GABA receptor/benzodiazepine receptor/chloride ionophore complex (1).
15 mg/kg of DMCM dissolved in 0.02N HCl (1 mg/ml) is administered i.p. in a volume of 300 μl to male NMRI mice weighing 20±2 g. This induces two different responses: a) some animals manifest a brief loss of righting reflexes or take up an upright position in which they have a mild short clonus of the upper extremities, b) other animals manifest intense clonic and tonic convulsions of all extremities often followed by death. DMCM is administered 30 min. after an intraperitoneal injection of a test compound. The latency time for the presence of intense clonic and tonic convulsions and death is noted until 15 min. after administration of DMCM. At least 5 doses of each test compound are tested with 8 mice per dose.
This method is described in more detail in Eur. J. Pharmacol. 94, 117-124, 1983.

The next assay concerns the target T1, adenosine A2 receptor (Rattus norvegicus, UniProt P30543).
T1 construct: from tissue
Put plainly: In vitro binding to adenosine A2 receptor, radioligand [3H]-CGS 21680. From the text:
(§1) Evaluation of in vitro binding to adenosine A1 and A2 receptors.

The target of a further assay is T2, adenosine A1 receptor (Rattus norvegicus, UniProt P25099).
T2 construct: from tissue
T2 sequence (P25099 1-326): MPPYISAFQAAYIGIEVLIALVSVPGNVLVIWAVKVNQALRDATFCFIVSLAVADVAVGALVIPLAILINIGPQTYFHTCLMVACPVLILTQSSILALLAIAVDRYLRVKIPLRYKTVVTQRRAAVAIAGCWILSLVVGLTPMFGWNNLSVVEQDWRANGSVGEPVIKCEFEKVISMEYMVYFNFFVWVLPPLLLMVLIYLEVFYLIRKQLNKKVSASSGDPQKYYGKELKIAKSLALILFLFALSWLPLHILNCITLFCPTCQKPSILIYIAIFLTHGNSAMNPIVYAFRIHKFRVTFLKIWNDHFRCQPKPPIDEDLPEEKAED
Put plainly: In vitro binding to adenosine A1 receptor, radioligand [3H]-L-PIA. Particulars: for Ki: [3H]-L-PIA radioligand; for Ratio A2/A1: ratio of Ki A2/A1.
Excerpt: as §1

Setting [1] is: mice, test compound i.p. 30 min before DMCM 15 mg/kg i.p., dose protecting 50% against clonic convulsions.
[2] abbreviates: [3H]-CGS 21680 radioligand, read-out: A2 Receptor Binding (Ki).

SMILES strings stand for the structures. Where two headings read alike, the source gives them in different places.

T1 sequence (P30543 whole entry): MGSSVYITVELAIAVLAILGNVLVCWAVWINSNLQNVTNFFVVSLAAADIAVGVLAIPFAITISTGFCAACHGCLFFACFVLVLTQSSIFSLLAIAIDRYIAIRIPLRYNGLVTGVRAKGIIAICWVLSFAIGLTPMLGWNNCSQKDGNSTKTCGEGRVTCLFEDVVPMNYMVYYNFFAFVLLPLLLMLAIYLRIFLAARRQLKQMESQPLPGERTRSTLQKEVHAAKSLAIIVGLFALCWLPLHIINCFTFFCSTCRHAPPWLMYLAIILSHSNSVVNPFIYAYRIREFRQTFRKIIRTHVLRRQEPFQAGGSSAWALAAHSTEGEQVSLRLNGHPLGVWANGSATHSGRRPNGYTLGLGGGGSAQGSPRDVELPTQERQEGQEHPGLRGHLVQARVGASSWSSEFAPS

Regarding `OC[C@H]1O[C@@H](n2cnc3c(NC4CCCC4)nc(Cl)nc32)[C@H](O)[C@@H]1O` [2-chloro-N-cyclopentyladenosine], the “selectivity for the A1 receptor over the A2 receptor” value with A1 receptor is “most selective for the A1 receptor over the A2 receptor”.

One may read the Ki as the equilibrium dissociation constant of an inhibitor or competing ligand from its target. Consider `OC[C@H]1O[C@@H](n2cnc3c(NC4CCCC4)ncnc32)[C@H](O)[C@@H]1O` [CPA, N-(cyclopentyl)adenosine, reference compound], for which the ED50 with mice came out at 0.2 mg/kg. On adenosine A2 receptor, the affinity corresponds to a Ki of 173 nM.

On to `OC[C@H]1O[C@@H](n2cnc3c(NN4CCCCC4)nc(Cl)nc32)[C@H](O)[C@@H]1O` [Example 5, 2-Chloro-N-(1-piperidinyl)adenosine], for which, in the assay on mice (setting [1]), the ED50 came to 0.1 mg/kg. Besides, the inhibition constant (Ki) at adenosine A2 receptor (setting [2]) is 691 nM. Besides, on adenosine A1 receptor, affinity was put at a Ki of 4 nM and the “Ratio A2/A1” value was 173.

Turning to `OC[C@H]1O[C@@H](n2cnc3c(NN4CCCCC4)nc(F)nc32)[C@H](O)[C@@H]1O` [Example 9, 2-Fluoro-N-(1-piperidinyl)adenosine], the ED50 with mice (setting [1]) came out at 0.7 mg/kg. The Ki on adenosine A2 receptor (setting [2]) stood at 1140 nM; on adenosine A1 receptor, 4 nM. For the same molecule, on adenosine A1 receptor, the “Ratio A2/A1” value came out at 289.

With `OC[C@H]1O[C@@H](n2cnc3c(NN4CCCC(Oc5ccccc5)C4)nc(Cl)nc32)[C@H](O)[C@@H]1O` (stereo partly shown) [Example 16, 2-Chloro-N-(3-phenoxy-1-piperidinyl)adenosine], the ED50 in the assay on mice (setting [1]) was determined as 1 mg/kg. In addition, the Ki on adenosine A2 receptor (setting [2]) was found to be 1730 nM. Further, at adenosine A1 receptor, the Ki turned out to be 11 nM and the “Ratio A2/A1” value came out at 158.

On to `OC[C@H]1O[C@@H](n2cnc3c(NN4CCC(Oc5ccccc5)CC4)nc(Cl)nc32)[C@H](O)[C@@H]1O` [Example 17, 2-Chloro-N-[4-phenoxy-1-piperidinyl]adenosine], for which the ED50 in the assay on mice (setting [1]) was determined as 0.9 mg/kg. At adenosine A2 receptor (setting [2]), the Ki was found to be 1200 nM. For the same molecule, the “Ratio A2/A1” value at adenosine A1 receptor came out at 857.

With `CC(Cc1ccccc1)Nc1ncnc2c1ncn2[C@@H]1O[C@H](CO)[C@@H](O)[C@H]1O` (stereo partly drawn) [L-PIA, N-(1-phenyl-2-propyl)adenosine, reference compound], the ED50 in the assay on mice is 0.1 mg/kg.
